Where “and” joins values, the source holds several entries; their conditions need not be identical. Equal entries are not always repeated. Where two headings read alike, the source gives them in different places.
Assays:
[1] = biological target: neuraminidase of influenza B viruses (Influenza B virus, UniProt A0A1X9RX69); type: biochemical
[2] = biological target: neuraminidase of live influenza A (H1N1) viruses (Influenza A virus, UniProt P03468); test: biochemical; type: biochemical
[3] = biological target: neuraminidase of live influenza A (H1N1) viruses (Influenza A virus, UniProt C3W6G3); test: biochemical; type: biochemical
[4] = system: Influenza B/Brisbane/60/2008; test: microbe, parasite or virus in culture; details: MDCK, read-out: EC50, B/Brisbane/60/2008 (Victoria lineage)
[5] = system: Influenza A/Anhui/1/2013 (H7N9); test: microbe, parasite or virus in culture; details: H7N9, MDCK
[6] = system: Influenza B/Florida/4/2006; test: microbe, parasite or virus in culture; details: MDCK
[7] = system: A/Netherlands/602/2009 (H1N1); type: cell-based, Influenza A virus
[8] = system: H5N1 isolates (high path influenza A); type: cell-based, Influenza A virus
[9] = system: INF-γ, TNF-α, IL-6, MIP-1α, MCP-1 in lung homogenate; design: species or system BALB/c mice; details: mouse, in vivo
influenza B = type: cell-based, Influenza B virus
[10] = system: A/Puerto Rico/08/1934 (H1N1), PR8; type: in vivo, mouse; details: 10 days
[11] = system: neuraminidase of influenza B viruses; type: biochemical; details: read-out: neuraminidase inhibition (median IC50)
B (B/Malaysia/2506/2004) = type: cell-based, Influenza B virus
A/CA/12/12 (H1N1) = system: A/CA/12/12 (H1N1); design: species or system BALB/c mice; details: mouse, in vivo
B/Brisbane/60/2008 = system: B/Brisbane/60/2008; design: species or system BALB/c mice; details: mouse, in vivo
A/Anhui/01/2013 (H7N9) = type: cell-based, Influenza A virus
[12] = system: neuraminidase of live influenza A (H1N1) viruses; test: biochemical; type: biochemical, Influenza A virus; details: read-out: neuraminidase inhibition (median IC50)
A/PR/8/34 (H1N1) = system: A/PR/8/34 (H1N1); design: species or system BALB/c mice; details: mouse, in vivo
influenza A H1N1 strains = system: influenza A H1N1 strains; design: species or system Influenza A virus; details: read-out: cell-based cytopathic effect assay (median EC50)
INFV B (B/Brisbane) = test: microbe, parasite or virus in culture; type: cell-based, Influenza B virus; details: read-out: EC50 vs INFV B
lung cytokines [13] = system: lung cytokines; design: species or system BALB/c mice; details: mouse, in vivo, po
[14] = system: H1N1 WT (A/California/12/2012); type: cell-based, Influenza A virus
[15] = system: A/turkey/Turkey/1/2005 (H5N1, clade 2.2); type: cell-based, Influenza A virus
[16] = system: A/Vietnam/1203/2004 (H5N1); design: species or system BALB/c mice; details: mouse, in vivo
influenza A/CA/07/2009 = system: influenza A/CA/07/2009; design: species or system BALB/c mice; details: mouse, in vivo, po, 5 mg/kg
influenza A/PR/8/1934 = system: influenza A/PR/8/1934; design: species or system BALB/c mice; details: mouse, in vivo; for Log reduction PFU/g / Viral burden PFU/g: po
[17] = system: A/Puerto Rico/8/1934 (H1N1); details: mouse, in vivo
[18] = system: A/Hong Kong/156/1997 (H5N1, clade 0); type: cell-based, Influenza A virus
[19] = system: A/Puerto Rico/8/1934 (H1N1); design: species or system BALB/c mice; details: mouse, in vivo
lung cytokines [20] = system: lung cytokines; design: species or system BALB/c mice; details: mouse, in vivo, po, 5 mg/kg
H3N2 A/Hong Kong/1/68 = type: in vivo, mouse; details: 15 days
A/Texas/36/91 (H1N1) [21] = details: mouse, in vivo
[22] = system: influenza A/Ca/07/2009 (H1N1)pdm; type: cell-based, Influenza A virus
[23] = system: neuraminidase of live influenza A (H3N2) viruses; test: biochemical; design: species or system Influenza A virus; details: read-out: neuraminidase inhibition (median IC50)
A/Texas/36/91 (H1N1) [24] = system: A/Texas/36/91 (H1N1); design: species or system BALB/c mice; details: mouse, in vivo
influenza A/WSN/1933 = type: cell-based, Influenza A virus
INFV A (A/CA/09 H1N1) = test: microbe, parasite or virus in culture; type: cell-based, Influenza A virus; details: read-out: EC50 vs INFV A
[25] = system: influenza A/CA/07/2009 (H1N1) pdm; type: cell-based, Influenza A virus
[26] = system: H3N2 WT (A/Washington/12/2007); type: cell-based, Influenza A virus
[27] = system: A/Indonesia/5/2005 (H5N1, clade 2.1); type: cell-based, Influenza A virus
influenza B strains = system: influenza B strains; design: species or system Influenza B virus; details: read-out: cell-based cytopathic effect assay (median EC50)
[28] = system: influenza A/Puerto Rico/8/1934 (H1N1); design: species or system BALB/c mice; details: mouse, in vivo
[29] = system: H7N9 isolate (high path influenza A); type: cell-based, Influenza A virus
influenza A H3N2 strains = system: influenza A H3N2 strains; design: species or system Influenza A virus; details: read-out: cell-based cytopathic effect assay (median EC50)
[30] = read-out: IC50 for viral replication
[31] = read-out: microneutralization (IC50)

C#CCOCCOCCOCCOCCN(CCOCCN(C)C(=O)O[C@@H]([C@@H]1OC(C(=O)O)=C[C@H](NC(=N)N)[C@H]1NC(C)=O)[C@H](O)CO)CCOCCN(C)C(=O)O[C@@H]([C@@H]1OC(C(=O)O)=C[C@H](NC(=N)N)[C@H]1NC(C)=O)[C@H](O)CO [Int-83]
IC50 [1]: 0.125 µM | IC50 [2]: 0.00423 µM | IC50 [3]: 0.0286 µM

NC(=O)c1ncn([C@@H]2O[C@H](CO)[C@@H](O)[C@H]2O)n1 [ribavirin]
EC50 [4]: 3.3 µM | EC50 [5]: 14 µM | EC50 ([5]; read-out: EC50, A/Anhui/1/2013 (H7N9) (zoonotic avian)): 14 µM | EC50 [6]: 3.25 µM | EC50 ([6]; read-out: EC50, B/Florida/4/2006 (Yamagata lineage)): 3.25 µM

CCOC(=O)C1=C[C@@H](OC(CC)CC)[C@H](NC(C)=O)[C@@H](N)C1 [Oseltamivir, oseltamivir]
EC100 (CPE in MDCK cells) [7]: ~1000 nM | IC50 [7, 30]: ≥ 0.3 µM | IC50 [7, 31]: > 0.3 µM | IC50 [8, 30]: ≥ 0.3 µM and 0.169 µM | IC50 [8, 31]: 0.169 µM and > 0.3 µM | IL-6 lung cytokine level [9]: 1.8 and 1.4 | INF-γ lung cytokine level [9]: 1.0 and 0.8 | MCP-1 lung cytokine level [9]: 24.0 and 16.2 | MIP-1a lung cytokine level [9]: 6.3 and 4.0 | TNF-α lung cytokine level [9]: 0.8 | EC50 (influenza B; read-out: CPE against influenza B, EC50, B/Brisbane): 0.969 µM | EC50 (influenza B; read-out: CPE against influenza B, EC50, B/Florida): > 10 µM | EC50 (influenza B; read-out: CPE against influenza B, EC50, B/Malaysia): 5.69 µM | % Survival [10]: 20% | IC50 [11]: […] | EC50 (B (B/Malaysia/2506/2004)): 0.0221 µM | Protection from lethal challenge (A/CA/12/12 (H1N1)): unprotective | Survival (A/CA/12/12 (H1N1)): 40% | Survival (B/Brisbane/60/2008): 40% | EC100 (CPE in MDCK cells) (A/Anhui/01/2013 (H7N9)): ~500 to 1000 nM | IC50 [12]: […] | Day until which death was delayed (A/PR/8/34 (H1N1)): 10 days | Survival (A/PR/8/34 (H1N1)): 0% | Survival / protection (A/PR/8/34 (H1N1)): 80% | EC50 (influenza A H1N1 strains): 2.41 µM | EC50 (INFV B (B/Brisbane)): 1.06 µM | IL-6 (lung cytokines [13]; 5 mg/kg): 714.2 pg/mL | MCP-1 (lung cytokines [13]; 5 mg/kg): 5301.6 pg/mL | KC (lung cytokines [13]; 50 mg/kg): 2705.5 pg/mL | MCP-1 (lung cytokines [13]; 50 mg/kg): 4572.8 pg/mL | MIP-1α (lung cytokines [13]; 50 mg/kg): 948.2 pg/mL | TNF-α (lung cytokines [13]; 50 mg/kg): 501.7 pg/mL | EC50 [14]: > 0.1 µM | EC100 (CPE in MDCK cells) [15]: ~125 to 250 nM | Protection [16]: 90% | Log reduction PFU/g (influenza A/CA/07/2009): −0.08 | Viral burden PFU/g (influenza A/CA/07/2009): 2.05E+07 PFU/g | Viral load reduction (influenza A/PR/8/1934): ca. 0.8 log | Log reduction PFU/g (influenza A/PR/8/1934; 5 mg/kg): 0.83 | Viral burden PFU/g (influenza A/PR/8/1934; 5 mg/kg): 2.86E+06 PFU/g | Log reduction PFU/g (influenza A/PR/8/1934; 50 mg/kg): 0.86 | Viral burden PFU/g (influenza A/PR/8/1934; 50 mg/kg): 2.66E+06 PFU/g | day by which mice reached mortality [17]: ≤ 8 days | loss of body weight [17]: 14% | protection (survival) [17]: fully protected | EC100 (CPE in MDCK cells) [18]: >1000 nM | Survival [19]: 0% | Survival ([19]; 200 mg/kg): 40% | IL-6 (lung cytokines [20]): 714.2 pg/mL | % Survival (H3N2 A/Hong Kong/1/68): 80% | % Survival (Day 14) (A/Texas/36/91 (H1N1) [21]): 100% | EC50 ([22]; read-out: EC50, MOI 0.1): > 10 µM | EC50 ([22]; read-out: EC50, MOI 1): > 10 µM | IC50 [23]: […] | Protection (A/Texas/36/91 (H1N1) [24]): no protection | Survival (A/Texas/36/91 (H1N1) [24]): 40% | Survival (A/Texas/36/91 (H1N1) [24]; 200 mg/kg): 80% | EC50 (influenza A/WSN/1933; read-out: EC50, MOI 0.001): 3.91 µM | EC50 (influenza A/WSN/1933; read-out: EC50, MOI 0.01): > 10 µM | EC50 (influenza A/WSN/1933; read-out: EC50, MOI 0.1): > 10 µM | EC50 (influenza A/WSN/1933; read-out: EC50, MOI 1): > 10 µM | EC50 (influenza A/WSN/1933; read-out: EC50, MOI 10): > 10 µM | EC50 (INFV A (A/CA/09 H1N1)): 0.39 µM | EC50 [25]: 0.0185 µM and 0.0342 µM | EC50 [26]: 0.0296 µM | EC100 (CPE in MDCK cells) [27]: ~200 to 500 nM | EC50 (influenza B strains): 0.759 µM | Log reduction (PFU/mL) [28]: 0.24 Log and 0.52 Log | IC50 [29, 30]: ≥ 0.3 µM | IC50 [29, 31]: > 0.3 µM | EC50 (influenza A H3N2 strains): 8.19 µM
